# Assay results: patent US9765328B2, “Nuclease-resistant DNA analogues” (Arizona Board of Regents on Behalf of Arizona State …, priority 2014, dated 2017)
# Entries after “also recorded” stand apart in the source; their conditions may differ. [FANA-N] = 2'-fluoro-arabino (N: the base); {32P} = 5'-32P radiolabel (phosphate); {FAM} = fluorescein (FAM) label
# Assays:
# [1] = Chemical stability assay, alkaline conditions (1 M NaOH); format: physicochemical; conditions: 65° C.
# Source text: The same protocol was used to monitor alkaline stability.
# [2] = Chemical stability assay in pepsin-free simulated gastric fluid (SGF); conditions: SGF pH 1.25, 37° C.
# Experimental: Pepsin-free simulated gastric fluid (SGF) was prepared by autoclaving a solution of NaCl (200 mg) in nanopure water (99 mL) followed by addition of 6N HCl (0.7 mL, pH 1.25). TNA (30 pmol), DNA (45 pmol), and RNA (5 pmol) were added to SGF (20 μL) and incubated for the specified time (up to 72 hours). Following the incubation, the reaction mixture was neutralized by the addition of 1N NaOH and the solutions were stored at −20° C. until the time course was complete. The volume was then reduced to 10 μL, mixed with 10 μL of loading buffer (8 M Urea, 5 mM Tris.HCl, 20 mM EDTA, pH 7.5), and the oligonucleotides were analyzed by denaturing PAGE and imaged.
# We compared the chemical stability of the all-TNA strand to DNA and RNA oligonucleotides of identical length and similar sequence. […] For these experiments, pepsin-free simulated gastric fluid (SGF, pH 1.25) and 1 M NaOH were used to maintain parity with previous antisense studies^26. For the acidic regime, the TNA, DNA, and RNA samples were incubated in SGF for 72 hours at 37° C.
# [3] = system: phosphodiesterase I from Crotalus adamanteus venom
# SVPE = conditions: literature; cited from earlier work
substance,measurement,setting,value
"5′-32P-UCUCUCUCUCUC-3′ (RNA, 5' {32P}, backbone not given here)",time within which the sample is degraded in 1 M NaOH,[1],≤ 30 min
same,sample degraded in SGF in the first 12 hours,[2]; first 12 hours,85%
3′-tttCtCtCtCtt-2′ [size-matched TNA/DNA hybrid],products of SVPE treatment (FIG. 2),[3],series of shorter truncated products
"2′-fluoro-arabino nucleic acid (AAAACCCACACCACCA; all [FANA-N], backbone and methylation of C not given here)",t1/2 in human serum,,< 3 h
same,degradation in the presence of SVPE,SVPE,degrade in minutes
"5′-Fam-CCCCCCCCCCCC-3′ (5' {FAM}, sugars by position and backbone not given here) [DNA]",time after which trace amounts of the sample are still visible in 1 M NaOH,[1],12 h
same,stability against snake venom phosphodiesterase (SVPE),[3],digested
same,strand stability in simulated gastric fluid after 72 hours (3 days),[2]; 72 hours,stable; also recorded: remained intact
